Test systems include CCRF-CEM leukemia; NCI-H23 lung; OVCAR-4 ovarian; MDA-MB-435; UACC-62 melanoma; HT29 colon; SNB-75 CNS; 786-0 renal; TK-10 renal; SNB-19 CNS.
Test in all cases: NCI tumour cell line growth inhibition, 48 h

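Interpolation was linear, between the two tested concentrations surrounding the appropriate level; five concentrations were tested over 48 hours in 96-well plates. At the TGI there is no net growth.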

Take `CCCCOC(=O)C(NC(C(=O)OCCCC)c1cc(C(C)(C)C)c(O)c(C(C)(C)C)c1)c1cc(C(C)(C)C)c(O)c(C(C)(C)C)c1` (stereo not given): the TGI with CCRF-CEM leukemia, with NCI-H23 lung, in the test on OVCAR-4 ovarian, in the test on MDA-MB-435, in the test with UACC-62 melanoma and with HT29 colon was more than 100 µM each time. For the same compound, the TGI in the test on SNB-75 CNS, with 786-0 renal, with TK-10 renal and in the test with SNB-19 CNS was more than 100 µM in each case.
As to `C=C[C@@H](C)[C@H](NS(=O)(=O)c1ccc(C)cc1)C(=O)OCC`, the TGI was more than 100 µM in the test with CCRF-CEM leukemia; more than 100 µM with NCI-H23 lung; more than 100 µM in the test on OVCAR-4 ovarian; 47.2 µM with MDA-MB-435; more than 100 µM with UACC-62 melanoma; 59.9 µM in the test on HT29 colon. Further, the TGI in the test with SNB-75 CNS was 60.7 µM; in the test with 786-0 renal, more than 100 µM; with TK-10 renal, more than 100 µM; in the test with SNB-19 CNS, more than 100 µM.
For the compound `Cc1ccc([S@](=O)c2occc2C=O)cc1`, the TGI in the test with CCRF-CEM leukemia is 4.4 µM; in the test with NCI-H23 lung, 30.4 µM; with OVCAR-4 ovarian, more than 53.2 µM; in the test with MDA-MB-435 it was 20.8 µM; in the test with UACC-62 melanoma it was 29.3 µM; with HT29 colon, 27.2 µM. The TGI in the test with SNB-75 CNS came out at 30.9 µM; in the test on 786-0 renal it was 11.3 µM; in the test on TK-10 renal, 18.6 µM; in the test on SNB-19 CNS it was 18 µM.
For the compound `CCN(CC)N1C(=O)[N+](CC)(CC)N=C1[O-]`, the TGI in the test with CCRF-CEM leukemia, in the test with NCI-H23 lung, in the test with OVCAR-4 ovarian, in the test on MDA-MB-435, in the test with UACC-62 melanoma and with HT29 colon was more than 100 µM in each case. Also, the TGI in the test with SNB-75 CNS, with 786-0 renal, with TK-10 renal and in the test with SNB-19 CNS was more than 100 µM each time.

Source of the values: PubChem BioAssay (NCI).
